The results in this text go back to patent US20240033278A9, “CONJUGATE GROUP AND CONJUGATE” (MEDSHINE DISCOVERY INC., priority 2020, published 2024).

The assay addresses T1, human-derived anti-asialoglycoprotein receptors (ASGPR) (Homo sapiens, UniProt P07306).
T1 construct: purchased Sino Biological 10773-H07H
T1 sequence (P07306 1-291): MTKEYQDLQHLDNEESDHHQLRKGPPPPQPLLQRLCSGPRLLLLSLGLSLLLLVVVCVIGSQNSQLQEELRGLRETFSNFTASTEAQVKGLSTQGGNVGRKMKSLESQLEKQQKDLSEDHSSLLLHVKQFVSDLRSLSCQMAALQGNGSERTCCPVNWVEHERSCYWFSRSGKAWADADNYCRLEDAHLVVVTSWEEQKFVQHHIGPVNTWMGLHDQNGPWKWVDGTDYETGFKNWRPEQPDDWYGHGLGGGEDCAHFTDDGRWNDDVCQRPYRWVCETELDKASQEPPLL
Kind of assay: Binding affinity of the compound to human-derived ASGPR by surface plasmon resonance (SPR). On the procedure: Assay Example 1. Test of the Binding Affinity of the Compound to Human-Derived […]
The binding affinity of the compound to human-derived […] (ASGPR) was tested by surface plasmon resonance (SPR) technique, and the kinetic KD value of the compound was used as an indicator to evaluate the binding affinity of the compound to ASGPR, thereby reflecting the ability of the compound to specifically target hepatocytes for delivery of nucleic acid molecules.
Asialoglycoprotein Receptor Protein, Mouse, Recombinant (His Tag), Sino biological-50083-M07H-50 μg; Asialoglycoprotein Receptor Protein, Human, Recombinant (His Tag), Sino biological-10773-H07H-50 μg
3.1 The two proteins were respectively dissolved in 1×PBS to obtain a solution of 0.25 mg/mL, and the compound to be tested was dissolved in DMSO. The running buffer (10 mM HEPES, 150 mM NaCl, 0.05% Tween 20, 50 mM CaCl2, 50 μM EDTA) was prepared and filtered through a 0.22 μm membrane.
3.2 The NiHC 1500M Chip was docked into a biacore, and the system was switched to a running buffer.
3.3 Protein labeling: The chip was first treated with 350 mM EDTA at 30 μl/min for 5 min, rinsed with running buffer for 2 min, and then bound with 40 mM NiCl2 at 30 μl/min for 2 min. A protein diluted to 5 μg/mL with running buffer was then labeled on the chip at a flow rate of 10 μl/min for a final labeling amount of 1500-2000 RU.
3.4 The instrument system was switched to a running buffer containing 2% DMSO.
3.5 The compound with a starting concentration of 2 μM was serially diluted 2-fold with a running buffer containing 2% DMSO to obtain 9 concentrations. The final concentration of DMSO was 2%.
3.6 Testing: For each cycle, the compound was bound for 60 s and dissociated for 180 s at a flow rate of 50 μl/min. The compound was tested in order of concentration from low to high. Before the gradient testing of the compound, 4 cycles of blank (running buffer with 2% DMSO) were introduced, and solvent correction was performed with 1.5%-3.5% DMSO (6 concentrations).
The data were analyzed with Biacore Insight Evaluation Software, kinetics was analyzed with a 1:1 model, and affinity was analyzed with a steady state affinity model.

The structures appear in SMILES notation. pKd: −log10 of the molar value.

Regarding `COc1ccc(C(OC[C@@H]2C[C@@H](O)CN2C(=O)CCCCCCCCCCOCC(COCCC(=O)NCCCNC(=O)CCCCOC2OC(CO)C(O)C(O)C2NC(C)=O)(COCCC(=O)NCCCNC(=O)CCCCOC2OC(CO)C(O)C(O)C2NC(C)=O)NC(=O)CCC(=O)NCCCNC(=O)CCCCOC2OC(CO)C(O)C(O)C2NC(C)=O)(c2ccccc2)c2ccc(OC)cc2)cc1` (stereo partly drawn) [Compound D-01-M], the “binding affinity in the SPR assay (in words)” value (SPR) is “good binding affinity”. The pKd (SPR (Biacore 8k), kinetic KD, 1:1 model, His-tagged recombinant protein on NiHC 1500M chip) is 7.81. Besides, the kon (SPR, association rate constant, 1:1 model, read-out: Ka) came to 1.08e+06 M⁻¹ s⁻¹. The molecule also had a koff (SPR, dissociation rate constant, 1:1 model) of 0.0168 s⁻¹.
